Source: US9518060B2, “Substituted pyrrolo[3,4-c]pyrazoles as PKC kinase inhibitors” (PFIZER INC., priority 2007, dated 2016)
Structures can show the parent of a compound that is named as a salt.

Target: Protein Kinase C beta 2 (PKCβII) (Homo sapiens (Human), UniProt P05771)
Test: PKCβII coupled spectrophotometric kinase assay (PK/LDH, NADH absorbance at 340 nm)
Format: biochemical
Details: apparent Ki, ATP competitive inhibition model (Morrison equation); 0.1 mM ATP, 5 nM PKC, 30° C.; read-out: Ki app
Description: Protein Kinase C beta 2 (PKCβII) catalyzes the production of ADP from ATP that accompanies the phosphoryl transfer to the PKC Pseudosubstrate peptide (A→S, RFARKGSLRQKNV). This transfer is coupled to the oxidation of β-NADH through the activities of Pyruvate Kinase (PK) and Lactate Dehydrogenase (LDH). β-NADH conversion to NAD+ is monitored by the decrease in absorbance at 340 nm (e=6.22 cm^−1 mM^−1) using a Molecular Devices SPECTRA max PLUS spectrophotometer.
A typical assay was carried out on a 96-well, clear microtiter plate in a Molecular Devices spectrophotometer for 20 minutes at 30° C. in 0.1 mL of assay buffer containing 50 mM HEPES, pH 7.4, 5 nM PKC, 23 units of pyruvate kinase, 33 units of lactate dehydrogenase, 0.15 mM peptide, 0.1 mM ATP, 1 mM DTT, 4 mM PEP, 8 mM MgCl2, 0.3 mM NADH, 60 mM CaCl2, 10 mg/mL PS, 50 ng/mL PMA, 7.5% DMSO and from about 10,000 nM to 0.169 nM compound inhibitor. Stock solutions of 3-sn-phosphatidyl-L-serine (PS) and phorbol-12-myristate-13-acetate (PMA) were sonicated for 30 seconds just prior to addition to assay buffer and assays were initiated by the addition of 100 μM ATP.
Steady-state kinetic parameters for the bi-bi kinase reaction were determined at saturating phospho-acceptor peptide substrate concentration (0.15 mM) by fitting initial velocity data to the Michaelis-Menten equation, v=Vmax[S]/(KM+[S]) where v is the measured initial velocity, Vmax is the maximal enzyme velocity, [S] is the ATP substrate concentration, and KM is the Michealis constant for ATP. Enzyme turnover values (kcat) were calculated according to […], where [E] is the total enzyme concentration. Enzyme inhibition constants (apparent Ki values) were determined by fitting initial velocities at variable inhibitor concentrations to a model for ATP competitive inhibition based on the Morrison equation). Morrison, J. F., Biochim. Biophys Acta 185: 269-286 (1969).

Chain of Protein Kinase C beta 2 (PKCβII) (P05771 other isoform, or with tags, fused parts or gaps): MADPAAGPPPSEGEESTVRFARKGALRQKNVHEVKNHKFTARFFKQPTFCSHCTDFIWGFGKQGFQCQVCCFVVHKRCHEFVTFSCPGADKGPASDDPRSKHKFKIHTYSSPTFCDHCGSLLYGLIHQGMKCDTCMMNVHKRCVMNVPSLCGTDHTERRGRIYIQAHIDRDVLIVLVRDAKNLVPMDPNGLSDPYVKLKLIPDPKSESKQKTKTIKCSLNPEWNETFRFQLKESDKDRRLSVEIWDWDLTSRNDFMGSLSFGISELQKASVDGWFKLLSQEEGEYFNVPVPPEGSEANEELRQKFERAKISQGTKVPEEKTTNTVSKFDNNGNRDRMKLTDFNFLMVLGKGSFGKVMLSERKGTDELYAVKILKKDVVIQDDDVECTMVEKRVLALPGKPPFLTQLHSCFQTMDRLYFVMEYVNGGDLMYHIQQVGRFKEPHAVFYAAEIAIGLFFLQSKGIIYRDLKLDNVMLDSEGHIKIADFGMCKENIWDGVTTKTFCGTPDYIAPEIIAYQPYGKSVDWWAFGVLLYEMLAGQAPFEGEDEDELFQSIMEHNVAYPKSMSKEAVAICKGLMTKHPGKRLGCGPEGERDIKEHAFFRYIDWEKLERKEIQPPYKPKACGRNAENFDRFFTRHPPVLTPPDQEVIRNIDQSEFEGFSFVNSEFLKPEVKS

`CCNc1ncc(F)c(Nc2n[nH]c3c2CN(C(=O)N2C[C@@H](C)N(CCC(F)(F)F)C[C@@H]2C)C3(C)C)n1` [Example B5, N4-(5-{[(2S,5R)-2,5-dimethyl-4-(3,3,3-trifluoropropyl)piperazin-1-yl]carbonyl}-6,6-dimethyl-1,4,5,6-tetrahydropyrrolo[3,4-c]pyrazol-3-yl)-N2-ethyl-5-fluoropyrimidine-2,4-diamine] and `CCc1ncc(F)c(Nc2n[nH]c3c2CN(C(=O)N2C[C@@H](C)N(CCC(F)(F)F)C[C@@H]2C)C3(C)C)n1` [Example E4, 5-{[(2S,5R)-2,5-dimethyl-4-(3,3,3-trifluoropropyl)piperazin-1-yl]carbonyl}-N-(2-ethyl-5-fluoropyrimidin-4-yl)-6,6-dimethyl-1,4,5,6-tetrahydropyrrolo[3,4-c]pyrazol-3-amine] are within 1.5-fold of each other in Ki: 29.8 nM for the first, 31.5 nM for the second.

First: C[C@@H]1CN(C(=O)N2Cc3c(Nc4ccnc(C#N)n4)n[nH]c3C2(C)C)[C@@H](C)CN1C [Example B6, 4-[(6,6-dimethyl-5-{[(2S,5R)-2,4,5-trimethylpiperazin-1-yl]carbonyl}-1,4,5,6-tetrahydropyrrolo[3,4-c]pyrazol-3-yl)amino]pyrimidine-2-carbonitrile]
Second: CCOc1nccc(Nc2n[nH]c3c2CN(C(=O)N2C[C@@H](C)N(C)C[C@@H]2C)C3(C)C)n1 [Example E3, N-(2-ethoxypyrimidin-4-yl)-6,6-dimethyl-5-{[(2S,5R)-2,4,5-trimethylpiperazin-1-yl]carbonyl}-1,4,5,6-tetrahydropyrrolo[3,4-c]pyrazol-3-amine]
The Ki of the first is 5.4-fold lower: 2.43 nM for the first, 13.1 nM for the second. The first binds more tightly here.

`C[C@@H]1CN(C(=O)N2Cc3c(Nc4nc(N5CCOCC5)ncc4F)n[nH]c3C2(C)C)[C@@H](C)CN1C` [Example B7, N-(5-fluoro-2-morpholin-4-ylpyrimidin-4-yl)-6,6-dimethyl-5-{[(2S,5R)-2,4,5-trimethylpiperazin-1-yl]carbonyl}-1,4,5,6-tetrahydropyrrolo[3,4-c]pyrazol-3-amine] and `Cc1ncc(F)c(Nc2n[nH]c3c2CN(C(=O)N2C[C@@H](C)N(C)C[C@@H]2C)C3(C)C)n1` [Example H2, N-(5-fluoro-2-methylpyrimidin-4-yl)-6,6-dimethyl-5-{[(2S,5R)-2,4,5-trimethylpiperazin-1-yl]carbonyl}-1,4,5,6-tetrahydropyrrolo[3,4-c]pyrazol-3-amine] are within 1.5-fold of each other in Ki: 20.1 nM for the first, 18.1 nM for the second.

`CCNc1ncc(F)c(Nc2n[nH]c3c2CN(C(=O)C2(F)CCN(C)CC2)C3(C)C)n1` [Example C1, N^2-ethyl-5-fluoro-N^4-{5-[(4-fluoro-1-methylpiperidin-4-yl)carbonyl]-6,6-dimethyl-1,4,5,6-tetrahydropyrrolo[3,4-c]pyrazol-3-yl}pyrimidine-2,4-diamine] and `CCc1ncc(F)c(Nc2n[nH]c3c2CN(C(=O)C2(F)CCN(C)CC2)C3(C)C)n1` [Example G1, N-(2-ethyl-5-fluoropyrimidin-4-yl)-5-[(4-fluoro-1-methylpiperidin-4-yl)carbonyl]-6,6-dimethyl-1,4,5,6-tetrahydropyrrolo[3,4-c]pyrazol-3-amine] are within 1.5-fold of each other in Ki: 33.4 nM for the first, 25.4 nM for the second.

Compared with `CCc1ncc(F)c(Nc2n[nH]c3c2CN(C(=O)N2CC(C)(C)N(C)C[C@@H]2C)C3(C)C)n1` [Example D1, N-(2-ethyl-5-fluoropyrimidin-4-yl)-6,6-dimethyl-5-{[(2S)-2,4,5,5-tetramethylpiperazin-1-yl]carbonyl}-1,4,5,6-tetrahydropyrrolo[3,4-c]pyrazol-3-amine], `CCCc1ncc(F)c(Nc2n[nH]c3c2CN(C(=O)N2CC(C)(C)N(C)C[C@@H]2C)C3(C)C)n1` [Example I1, N-(5-fluoro-2-propylpyrimidin-4-yl)-6,6-dimethyl-5-{[(2S)-2,4,5,5-tetramethylpiperazin-1-yl]carbonyl}-1,4,5,6-tetrahydropyrrolo[3,4-c]pyrazol-3-amine] is 3.1-fold lower in Ki: 5.43 nM for the first, 1.73 nM for the second. The second binds more tightly here.

Compared with `CCc1ncc(F)c(Nc2n[nH]c3c2CN(C(=O)N2C[C@@H](C)N(C)C[C@@H]2C)C3(C)C)n1` [Example E1, N-(2-ethyl-5-fluoropyrimidin-4-yl)-6,6-dimethyl-5-{[(2S,5R)-2,4,5-trimethylpiperazin-1-yl]carbonyl}-1,4,5,6-tetrahydropyrrolo[3,4-c]pyrazol-3-amine acetate salt], `CCc1ncc(F)c(Nc2n[nH]c3c2CN(C(=O)N2C[C@@H](C)N(CCCOC)C[C@@H]2C)C3(C)C)n1` [Example E2, N-(2-ethyl-5-fluoropyrimidin-4-yl)-5-{[(2S,5R)-4-(3-methoxypropyl)-2,5-dimethylpiperazin-1-yl]carbonyl}-6,6-dimethyl-1,4,5,6-tetrahydropyrrolo[3,4-c]pyrazol-3-amine] is 6.4-fold lower in Ki: 10.5 nM for the first, 1.64 nM for the second. The second binds more tightly here.

`CCc1ncc(F)c(Nc2n[nH]c3c2CN(C(=O)N2CC(CCO)N(C)C[C@@H]2C)C3(C)C)n1` (stereo partly drawn) [Example E5, 2-((5S)-4-{[3-[(2-ethyl-5-fluoropyrimidin-4-yl)amino]-6,6-dimethyl-4,6-dihydropyrrolo[3,4-c]pyrazol-5(1H)-yl]carbonyl}-1,5-dimethylpiperazin-2-yl)ethanol] and `Cc1ncc(F)c(Nc2n[nH]c3c2CN(C(=O)N2CC(C)(C)N(C)C[C@@H]2C)C3(C)C)n1` [Example H3, N-(5-fluoro-2-methylpyrimidin-4-yl)-6,6-dimethyl-5-{[(2S)-2,4,5,5-tetramethylpiperazin-1-yl]carbonyl}-1,4,5,6-tetrahydropyrrolo[3,4-c]pyrazol-3-amine] cannot be ordered by Ki: less than 10 nM for the first, 7.21 nM for the second.

Compared with `Cc1ncc(F)c(Nc2n[nH]c3c2CN(C(=O)C2(F)CCN(C)CC2)C3(C)C)n1` [Example F1, 5-[(4-fluoro-1-methylpiperidin-4-yl)carbonyl]-N-(5-fluoro-2-methylpyrimidin-4-yl)-6,6-dimethyl-1,4,5,6-tetrahydropyrrolo[3,4-c]pyrazol-3-amine], `Cc1ccc(F)c(Nc2n[nH]c3c2CN(C(=O)C2(F)CCN(C)CC2)C3(C)C)n1` [Example J1, 5-[(4-fluoro-1-methylpiperidin-4-yl)carbonyl]-N-(3-fluoro-6-methylpyridin-2-yl)-6,6-dimethyl-1,4,5,6-tetrahydropyrrolo[3,4-c]pyrazol-3-amine] is 1.9-fold lower in Ki: 39.9 nM for the first, 21.2 nM for the second. The second binds more tightly here.

Going from `Cc1ncc(F)c(Nc2n[nH]c3c2CN(C(=O)N2C[C@@H]4CCCN4C[C@@H]2C)C3(C)C)n1` [Example H1, N-(5-fluoro-2-methylpyrimidin-4-yl)-6,6-dimethyl-5-{[(3S,8aS)-3-methylhexahydropyrrolo[1,2-a]pyrazin-2(1H)-yl]carbonyl}-1,4,5,6-tetrahydropyrrolo[3,4-c]pyrazol-3-amine] to `Cc1ncc(F)c(Nc2n[nH]c3c2CN(C(=O)N2C[C@@H](C)N(C4CCOCC4)C[C@@H]2C)C3(C)C)n1` [Example H7, 5-{[(2S,5R)-2,5-dimethyl-4-(tetrahydro-2H-pyran-4-yl)piperazin-1-yl]carbonyl}-N-(5-fluoro-2-methylpyrimidin-4-yl)-6,6-dimethyl-1,4,5,6-tetrahydropyrrolo[3,4-c]pyrazol-3-amine], the Ki falls from 39.8 nM to 22 nM (1.8-fold).

First: CC[C@H]1CN(C(=O)N2Cc3c(Nc4nc(C)ncc4F)n[nH]c3C2(C)C)CCN1C [Example H4, 5-{[(3S)-3-ethyl-4-methylpiperazin-1-yl]carbonyl}-N-(5-fluoro-2-methylpyrimidin-4-yl)-6,6-dimethyl-1,4,5,6-tetrahydropyrrolo[3,4-c]pyrazol-3-amine]
Second: CC[C@@H]1CN(C(=O)N2Cc3c(Nc4nc(C)ncc4F)n[nH]c3C2(C)C)CCN1C [Example H5, 5-{[(3R)-3-ethyl-4-methylpiperazin-1-yl]carbonyl}-N-(5-fluoro-2-methylpyrimidin-4-yl)-6,6-dimethyl-1,4,5,6-tetrahydropyrrolo[3,4-c]pyrazol-3-amine]
The Ki of the first is 1.7-fold higher: 86 nM for the first, 50.8 nM for the second. The second binds more tightly here.

Compared with `Cc1ncc(F)c(Nc2n[nH]c3c2CN(C(=O)N2C[C@@H](C)N(CC4CCOCC4)C[C@@H]2C)C3(C)C)n1` [Example H6, 5-{[(2S,5R)-2,5-dimethyl-4-(tetrahydro-2H-pyran-4-ylmethyl)piperazin-1-yl]carbonyl}-N-(5-fluoro-2-methylpyrimidin-4-yl)-6,6-dimethyl-1,4,5,6-tetrahydropyrrolo[3,4-c]pyrazol-3-amine], `Cc1ncc(F)c(Nc2n[nH]c3c2CN(C(=O)N2C[C@@H](C)N(CC4(O)CCOCC4)C[C@@H]2C)C3(C)C)n1` [Example H8, 4-[((2R,5S)-4-{[3-[(5-fluoro-2-methylpyrimidin-4-yl)amino]-6,6-dimethyl-4,6-dihydropyrrolo[3,4-c]pyrazol-5(1H)-yl]carbonyl}-2,5-dimethylpiperazin-1-yl)methyl]tetrahydro-2H-pyran-4-ol] is 11-fold higher in Ki: 14.9 nM for the first, 157 nM for the second. The first binds more tightly here.

`CC(C)c1ncc(F)c(Nc2n[nH]c3c2CN(C(=O)N2CC(C)(C)N(C)C[C@@H]2C)C3(C)C)n1` [Example I2, N-(5-fluoro-2-isopropylpyrimidin-4-yl)-6,6-dimethyl-5-{[(2S)-2,4,5,5-tetramethylpiperazin-1-yl]carbonyl}-1,4,5,6-tetrahydropyrrolo[3,4-c]pyrazol-3-amine] gave a Ki of 3.67 nM.
